Values of other authors, collected in patent publication US20170239455A1 (priority 2014, published 2017).

Test system: virus Ebola

## II [molecular iodine]
  effectiveness against the virus: effective
